PubChem BioAssay (NCI)
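GI50 is the concentration that inhibits growth by half. TGI is the concentration that stops growth completely.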

Tests used:
Test in all cases: DTP human tumour cell line panel, 384-well format
[1] = test system: BT-549 breast
[2] = test system: OVCAR-3 ovarian
[3] = test system: MDA-MB-435 melanoma
[4] = test system: A498 renal
[5] = test system: OVCAR-5 ovarian
[6] = test system: SF-539 CNS
[7] = test system: NCI-H23 lung
[8] = test system: SF-268 CNS
[9] = test system: NCI-H460 NSCLC
[10] = test system: NCI-H226 lung
[11] = test system: MDA-MB-468 breast
[12] = test system: M14 melanoma
[13] = test system: LOX IMVI melanoma
[14] = test system: 786-0 renal
[15] = test system: SW-620 colon
[16] = test system: HCT-15 colon
[17] = test system: HOP-92 NSCLC
[18] = test system: ACHN renal
[19] = test system: HCT-116 colon
[20] = test system: SK-MEL-5 melanoma
[21] = test system: SK-MEL-28 melanoma
[22] = test system: UO-31 renal
[23] = test system: COLO 205 colon
[24] = test system: PC-3 prostate
[25] = test system: RPMI-8226 leukemia
[26] = test system: OVCAR-8 ovarian
[27] = test system: SNB-75 CNS
[28] = test system: U251 glioblastoma
[29] = test system: HT29 colon
[30] = test system: DU-145 prostate
[31] = test system: SR leukemia
[32] = test system: CCRF-CEM leukemia
[33] = test system: OVCAR-4 ovarian
[34] = test system: IGROV1 ovarian
[35] = test system: MOLT-4 leukemia
[36] = test system: SNB-19 CNS
[37] = test system: HS 578T breast
[38] = test system: KM12 colon
[39] = test system: HCC-2998 colon
[40] = test system: K-562 leukemia
[41] = test system: EKVX NSCLC
[42] = test system: SN12C renal
[43] = test system: UACC-257 melanoma
[44] = test system: NCI-H522 lung
[45] = test system: T-47D breast
[46] = test system: RXF 393 renal
[47] = test system: MALME-3M melanoma
[48] = test system: A549 NSCLC
[49] = test system: HL-60(TB) leukemia
[50] = test system: NCI/ADR-RES ovarian
[51] = test system: NCI-H322M lung
[52] = test system: CAKI-1 renal
[53] = test system: MDA-MB-231 breast
[54] = test system: SK-OV-3 ovarian
[55] = test system: MCF7 breast
[56] = test system: TK-10 renal
[57] = test system: HOP-62 NSCLC
[58] = test system: SF-295 CNS

CC[C@@]1(c2ccccc2)C2=C(CC(C)(C)CC2=O)Nc2[nH]ncc21
GI50 [1]: > 100 µM
TGI [1]: > 100 µM
GI50 [2]: > 100 µM
TGI [2]: > 100 µM
GI50 [3]: > 100 µM
TGI [3]: > 100 µM
GI50 [4]: 98.6 µM
TGI [4]: > 100 µM
GI50 [5]: > 100 µM
TGI [5]: > 100 µM
GI50 [6]: > 100 µM
TGI [6]: > 100 µM
GI50 [7]: > 100 µM
TGI [7]: > 100 µM
GI50 [8]: > 100 µM
TGI [8]: > 100 µM
GI50 [9]: 35 µM
TGI [9]: > 100 µM
GI50 [10]: > 100 µM
TGI [10]: > 100 µM
GI50 [11]: 30.8 µM
TGI [11]: > 100 µM
GI50 [12]: 56.9 µM
TGI [12]: > 100 µM
GI50 [13]: > 100 µM
TGI [13]: > 100 µM
GI50 [14]: > 100 µM
TGI [14]: > 100 µM
GI50 [15]: > 100 µM
TGI [15]: > 100 µM
GI50 [16]: 60 µM
TGI [16]: > 100 µM
GI50 [17]: > 100 µM
TGI [17]: > 100 µM
GI50 [18]: > 100 µM
TGI [18]: > 100 µM
GI50 [19]: 66.9 µM
TGI [19]: > 100 µM
GI50 [20]: > 100 µM
TGI [20]: > 100 µM
GI50 [21]: > 100 µM
TGI [21]: > 100 µM
GI50 [22]: 47.1 µM
TGI [22]: > 100 µM
GI50 [23]: > 100 µM
TGI [23]: > 100 µM
GI50 [24]: > 100 µM
TGI [24]: > 100 µM
GI50 [25]: 54.7 µM
TGI [25]: > 100 µM
GI50 [26]: > 100 µM
TGI [26]: > 100 µM
GI50 [27]: > 100 µM
TGI [27]: > 100 µM
GI50 [28]: 96.6 µM
TGI [28]: > 100 µM
GI50 [29]: > 100 µM
TGI [29]: > 100 µM
GI50 [30]: > 100 µM
TGI [30]: > 100 µM
GI50 [31]: 38.8 µM
TGI [31]: > 100 µM
GI50 [32]: > 100 µM
TGI [32]: > 100 µM
GI50 [33]: > 100 µM
TGI [33]: > 100 µM
GI50 [34]: > 100 µM
TGI [34]: > 100 µM
GI50 [35]: > 100 µM
TGI [35]: > 100 µM
GI50 [36]: > 100 µM
TGI [36]: > 100 µM
GI50 [37]: 64.6 µM
TGI [37]: > 100 µM
GI50 [38]: > 100 µM
TGI [38]: > 100 µM
GI50 [39]: > 100 µM
TGI [39]: > 100 µM
GI50 [40]: > 100 µM
TGI [40]: > 100 µM
GI50 [41]: > 100 µM
TGI [41]: > 100 µM
GI50 [42]: > 100 µM
TGI [42]: > 100 µM
GI50 [43]: > 100 µM
TGI [43]: > 100 µM
GI50 [44]: > 100 µM
TGI [44]: > 100 µM
GI50 [45]: > 100 µM
TGI [45]: > 100 µM
GI50 [46]: 66.3 µM
TGI [46]: > 100 µM
GI50 [47]: > 100 µM
TGI [47]: > 100 µM
GI50 [48]: > 100 µM
TGI [48]: > 100 µM
GI50 [49]: 46.3 µM
TGI [49]: > 100 µM
GI50 [50]: > 100 µM
TGI [50]: > 100 µM
GI50 [51]: > 100 µM
TGI [51]: > 100 µM
GI50 [52]: > 100 µM
TGI [52]: > 100 µM
GI50 [53]: > 100 µM
TGI [53]: > 100 µM
GI50 [54]: > 100 µM
TGI [54]: > 100 µM
GI50 [55]: > 100 µM
TGI [55]: > 100 µM
GI50 [56]: 45.2 µM
TGI [56]: > 100 µM
GI50 [57]: > 100 µM
TGI [57]: > 100 µM
GI50 [58]: 50.9 µM
TGI [58]: > 100 µM
